Source: patent publication US8993612B2, “Modulators of calcium release-activated calcium channel and methods for treatment of non-small cell lung cancer” (Rhizen Pharmaceuticals SA, priority 2009, dated 2015)

Legend:
Type in all cases: cell-based
TNFα [1] = test: Inhibition of TNFα release in human whole blood; settings: Concanavalin A + PMA, 20 h, read-out: IC 50 Human Whole Blood TNFα
Experimental: (§1) Inhibition of cytokine IL-2, IL-4, IL-5 and TNF α was determined as described below.
(§2) Freshly collected HWB was diluted with RPMI medium (1:4.5) and added to a 96-well plate. Wells were incubated with desired concentrations of the inhibitor for 15 min. Cytokine release was induced by the addition of Concanavalin A (25 μg/ml)+Phorbol Myristate Acetate (50 ng/ml) for IL-2 & TNFα or with Phytohemagglutinin (5 μg/ml) for IL-4 & IL-5 and incubated at 37° C. in an atmosphere containing […]. Supernatant was collected after 20 h (IL-2 & TNFα) or 48 h (IL-4 & IL-5) for estimation of cytokines by ELISA. Data were analysed using GraphPad Prism. IC50 values for each compound were determined based on the percent inhibition due to the test compound compared to the control.

IL-5 [2] = test: Inhibition of IL-5 release in human whole blood; settings: Phytohemagglutinin, 48 h, read-out: IC 50 Human Whole Blood IL-5
Experimental: as §1, §2

IL-4 [3] = test: Inhibition of IL-4 release in human whole blood; settings: Phytohemagglutinin, 48 h, read-out: IC 50 Human Whole Blood IL-4
Experimental: as §1, §2

CRAC channels = CRAC channels (Homo sapiens (Human), UniProt Q96D31); test: In-vitro CRAC channel inhibition assay in Jurkat cells (thapsigargin-induced calcium influx)
Experimental: Inhibition of CRAC channels was determined following thapsigargin (Sigma, Cat # T9033) induced endoplasmic calcium release in Jurkat cells. (see Yasurio Yonetoky et. al Bio. & Med. Chem. 14 (2006) 4750-4760). Cells were centrifuged and resuspended in equal volumes ° f Ca^2+ and Mg^2+ free Hanks buffer and Fluo-8 NW dye (ABD Bioquest, Inc., Sunnyvale, Calif.) loading solution at 2×10^5 cells/100 μl/well in 96-well black plate. Plate is incubated at 37° C./5% CO2 for 30 mM followed by further 15 mM incubation at room temperature. Test compounds (DMSO stocks diluted in Ca^2+ and Mg^2+ free Hanks buffer) at desired concentrations were added to the wells and incubated for […]. Thapsigargin (1 μM final concentration) was added to the wells and incubated for 15 min to inhibit the Sarco-endoplasmic reticulum Ca^2+ ATPase pump thereby depleting endoplasmic calcium and raising cytosolic calcium concentrations. Store-operated calcium entry was initiated by adding extracellular Ca^2+ to a final concentration of 1.8 mM. Fluorescence was monitored over […] on a plate reader (BMG Labtech., Germany) with excitation at 485 nm and an emission wavelength at 520 nm. Data were analyzed using GraphPad Prism. IC50 for each compound was determined based on the percent inhibition of thapsigargin-induced calcium influx into cells.

IL-2 [4] = test: Inhibition of IL-2 release in PBMC; settings: Homo sapiens, Concanavalin A + PMA, 20 h, read-out: IC 50 PBMC IL-2
Experimental: as §1
as §2, with “PBMC from freshly” for “Freshly”, “were isolated by density gradient using Histopaque” for “was diluted with RPMI medium (1:4.5)”, “seeded in” for “added to”, “Cells” for “Wells”

IL-5 [5] = test: Inhibition of IL-5 release in PBMC; settings: Homo sapiens, Phytohemagglutinin, 48 h, read-out: IC 50 PBMC IL-5
Experimental: as §1
as §2, with “PBMC from freshly” for “Freshly”, “were isolated by density gradient using Histopaque” for “was diluted with RPMI medium (1:4.5)”, “seeded in” for “added to”, “Cells” for “Wells”

IL-2 [6] = test: Inhibition of IL-2 release in human whole blood; settings: Concanavalin A + PMA, 20 h, read-out: IC 50 Human Whole Blood IL-2
Experimental: as §1, §2

TNFα [7] = test: Inhibition of TNFα release in PBMC; settings: Homo sapiens, Concanavalin A + PMA, 20 h, read-out: IC 50 PBMC TNFα
Experimental: as §1
as §2, with “PBMC from freshly” for “Freshly”, “were isolated by density gradient using Histopaque” for “was diluted with RPMI medium (1:4.5)”, “seeded in” for “added to”, “Cells” for “Wells”

IL-4 [8] = test: Inhibition of IL-4 release in PBMC; settings: Homo sapiens, Phytohemagglutinin, 48 h, read-out: IC 50 PBMC IL-4
Experimental: as §1
as §2, with “PBMC from freshly” for “Freshly”, “were isolated by density gradient using Histopaque” for “was diluted with RPMI medium (1:4.5)”, “seeded in” for “added to”, “Cells” for “Wells”

CRAC channels, sequence (Q96D31 whole entry): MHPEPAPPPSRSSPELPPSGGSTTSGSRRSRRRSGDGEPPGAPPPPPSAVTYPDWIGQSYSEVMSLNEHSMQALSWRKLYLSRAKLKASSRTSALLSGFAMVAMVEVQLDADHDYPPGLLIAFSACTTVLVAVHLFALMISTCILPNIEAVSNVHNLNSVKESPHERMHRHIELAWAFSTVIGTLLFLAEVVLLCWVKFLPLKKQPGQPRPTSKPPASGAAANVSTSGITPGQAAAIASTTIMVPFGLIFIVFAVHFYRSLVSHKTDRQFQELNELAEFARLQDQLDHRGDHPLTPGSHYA

IC50 (TNFα [1]): 0.0356 µM | IC50 (IL-5 [2]): 0.164 µM | IC50 (IL-4 [3]): 1.23 µM | IC50 (CRAC channels): 0.0392 µM | inhibition at 1 µM (CRAC channels; 1 uM): 100% | IC50 (IL-2 [4]): 0.383 µM | IC50 (IL-5 [5]): 0.149 µM | IC50 (IL-2 [6]): 0.0407 µM | IC50 (TNFα [7]): 0.138 µM | IC50 (IL-4 [8]): 0.54 µM
SMILES: O=C(Cn1nnc2ccccc21)Nc1ccc(-n2nc(C(F)(F)F)cc2C2CC2)cc1 [Example 20, 2-(1H-benzo[d][1,2,3]triazol-1-yl)-N-{4-[5-cyclopropyl-3-(trifluoromethyl)-1H-pyrazol-1-yl]phenyl}acetamide]
